Data from paper PMC10352325, “Nitro-benzylideneoxymorphone, a bifunctional mu and delta opioid receptor ligand with high mu opioid receptor efficacy” (Frontiers in Pharmacology, 2023).
“And” between values parts separate entries of the source, which are not always exact repeats. Equal values may be shown once.

Assays:
DOPr [1] = target: T1, DOPr (Homo sapiens, UniProt P41143); test: biochemical; type: binding; conditions: for DOPr ΔG: Gibb's free energy converted from experimental Ki
T1 construct: host or cells: CHO
T1 sequence (P41143 whole entry): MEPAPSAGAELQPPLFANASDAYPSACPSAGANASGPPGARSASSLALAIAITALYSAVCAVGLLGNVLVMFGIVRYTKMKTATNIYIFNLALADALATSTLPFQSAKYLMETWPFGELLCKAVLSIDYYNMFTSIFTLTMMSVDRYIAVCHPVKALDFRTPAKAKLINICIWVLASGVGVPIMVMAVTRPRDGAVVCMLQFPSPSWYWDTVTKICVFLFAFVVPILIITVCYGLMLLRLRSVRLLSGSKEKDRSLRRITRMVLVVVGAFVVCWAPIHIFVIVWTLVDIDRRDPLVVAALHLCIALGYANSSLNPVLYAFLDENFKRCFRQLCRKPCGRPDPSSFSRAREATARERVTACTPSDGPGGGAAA
Protocol: (§1) Cell lines, cell culture, and drug preparation. The hDOPr-CHO cell line was a generous gift from Dr. Larry Toll at the Torrey Pines Institute. The hMOPr- and hKOPr-CHO cell lines were generous gifts from John M. Streicher at the University of Arizona. All cells were cultured in 50:50 DMEM/F12 media with 10% heat-inactivated FBS and 1X penicillin/streptomycin supplement (all Gibco brand) in a 37°C humidified incubator with 5% CO2 atmosphere. Propagation cultures were further maintained with 500 μg/mL G418. Cultures were propagated for no more than 30 passages before discarding. […] Cell pellets were resuspended in 50 mM Tris HCl pH 7.4 and homogenized with a tissue grinder for 15–30 s on ice. Crude membranes were spun down at 15,000 g for 30 min. This process was repeated, and membrane preparations were stored at −80°C prior to use.
(§2) Briefly, these reactions were miniaturized to a 400 μL volume in 96 well plates and incubated at RT for 1 h at DOPr-, KOPr- and MOPr-CHO membrane preparations. The reactions were terminated by rapid filtration through 96-well format GF/B filter plates (PerkinElmer) and washed with cold 25 mM Tris HCl pH 7.4 buffer, dried, and added ECOLUME^TM scintillation cocktail from MP Biomedicals (Santa Cruz, CA, United States). The plates were read in a MicroBeta2 96-well format 6 detector scintillation counter (PerkinElmer). KI values were calculated using the IC50 of each competitor ligand and the previously established KD of ^3H-diprenorphine in each cell line using a competition binding model (GraphPad Prism 7.0).

KOPr [2] = target: T2, KOPr (Homo sapiens, UniProt P41145); test: biochemical; type: binding; conditions: for Ki: [3H]-diprenorphine, CHO membranes, n = 3, mean ± SEM; for Selectivity KOPr/MOPr (Ki): ratio of binding Ki
T2 construct: host or cells: CHO
T2 sequence (P41145 whole entry): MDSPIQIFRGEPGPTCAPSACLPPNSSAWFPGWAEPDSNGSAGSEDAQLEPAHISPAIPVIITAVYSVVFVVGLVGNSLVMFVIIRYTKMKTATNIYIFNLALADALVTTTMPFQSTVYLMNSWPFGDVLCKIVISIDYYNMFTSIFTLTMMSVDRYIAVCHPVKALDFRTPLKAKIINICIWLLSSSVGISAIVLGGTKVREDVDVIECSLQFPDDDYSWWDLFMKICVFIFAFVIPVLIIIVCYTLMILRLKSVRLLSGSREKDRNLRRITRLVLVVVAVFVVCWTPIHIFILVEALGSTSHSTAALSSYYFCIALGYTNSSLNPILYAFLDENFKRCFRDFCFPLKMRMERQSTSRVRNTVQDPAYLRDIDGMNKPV
Protocol: as §1, §2

MOPr [3] = target: T3, MOPr (Homo sapiens, UniProt P35372); test: biochemical; type: binding; conditions: for MOPr ΔG: Gibb's free energy converted from experimental Ki; for Ki: [3H]-diprenorphine, CHO membranes, n = 3, mean ± SEM
T3 construct: host or cells: CHO
T3 sequence (P35372 whole entry): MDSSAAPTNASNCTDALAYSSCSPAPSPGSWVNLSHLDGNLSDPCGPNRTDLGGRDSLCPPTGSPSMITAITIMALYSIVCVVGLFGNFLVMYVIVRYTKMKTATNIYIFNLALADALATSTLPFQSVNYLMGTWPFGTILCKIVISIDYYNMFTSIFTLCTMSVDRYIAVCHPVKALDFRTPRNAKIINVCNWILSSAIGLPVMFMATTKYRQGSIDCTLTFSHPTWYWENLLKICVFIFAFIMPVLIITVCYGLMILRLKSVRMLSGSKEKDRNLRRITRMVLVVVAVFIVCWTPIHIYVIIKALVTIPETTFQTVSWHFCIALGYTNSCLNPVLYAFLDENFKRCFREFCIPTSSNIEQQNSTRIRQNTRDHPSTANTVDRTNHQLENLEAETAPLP
Protocol: as §1, §2

MOPr [4] = target: T3, MOPr; test: [35S]GTPγS coupling, MOPr-CHO membranes; type: biochemical; conditions: for Emax: read-out: MOPr Emax ±SEM
DOPr [5] = target: T1, DOPr; test: biochemical; conditions: for Selectivity DOPr/MOPr (EC50): ratio of [35S]GTPγS EC50; for Emax: read-out: DOPr Emax ±SEM
KOPr [6] = target: T2, KOPr; test: [35S]GTPγS coupling, KOPr-CHO membranes; type: biochemical; conditions: Emax% relative to U69,593, read-out: KOPr Emax ±SEM
DOPr [7] = target: T1, DOPr; test: βarrestin2 recruitment (DiscoveRx PathHunter); type: cell-based
Text: We further evaluated 12 in βarrestin2 recruitment assays (DiscoveRx) to evaluate DOPr agonist vs. antagonist efficacy in a higher efficacy requiring assay (Supplementary Figure S1). […] None of the compounds in this series stimulated KOPr-mediated G-protein recruitment. Retaining selectivity over KOPr is vital because KOPr agonists cause dysphoria and hallucinations ([Bruchas et al., 2007]; [Cunningham et al., 2011]).
βarrestin2 recruitment. βarrestin2 recruitment in CHO cells expressing […] was measured using the DiscoverRx PathHunter® assay kit (DiscoveRx, Fremont, CA) according to the manufacturer’s protocol. Assays were performed on at least three separate occasions in triplicate. Luminescence was read using a Synergy 2 plate reader (BioTek, Winooski, VT).

C57BL/6 mice [8] = test: Acute antinociception, 50°C warm water tail withdrawal (WWTW); type: in vivo, mouse; conditions: i.p.; for tail withdrawal latency, dose-response: 30 min before 50°C WWTW, C57BL/6 WT mice
Protocol: The 50°C warm water tail withdrawal (WWTW) antinociception assay is a standard preclinical pain assay, in which clinical analgesics increase the latency of tail removal from the warm water (Figure 2A).
To compare the total antinociceptive activity over time, we determined the area under the curve (AUC) of each ligand’s time-course.
Acute antinociception: 50°C warm-water tail withdrawal test in C57BL/6 mice. […] A maximum cutoff time of 20 s was implemented to prevent tissue damage. […] Drug-stimulated antinociception was expressed as a percentage of maximum possible effect (% MPE), where % MPE = (drug latency—baseline latency)/(cutoff latency—baseline latency) × 100. The acute antinociception results were analyzed with a one-way ANOVA followed by a post hoc Dunnett test comparing the drug(s) to vehicle.

C57BL/6 mice [9] = test: Chronic administration and antinociceptive tolerance, 50°C WWTW; type: in vivo, mouse; conditions: for day of first statistically significant antinociceptive tolerance: 10 mg/kg morphine, 32 mg/kg 12, i.p. 3x daily, WT mice
Protocol: As expected, the OPr antagonist and MOPr KO experiments indicate that antinociception and likely tolerance are MOPr-mediated effects.
Chronic administration and antinociceptive tolerance. To investigate antinociceptive tolerance, either C57BL/6 WT or MOR KO mice were administered (i.p.) drug 2-3 times a day as indicated (Figure 3). […]. Mice administered with 12 were injected with 0.5 mL 0.9% saline (s.c.) twice daily. Mice were injected again at 7 p.m. on day 1, but neither weighed nor tested for antinociception. […]. A two-way analysis of variance (ANOVA) was conducted for all tolerance assays. The significance threshold was p < 0.05, and a Tukey post hoc test followed all significant ANOVAs.

C57BL/6 mice [10] = test: Toxicology on chronic administration (body weight, health); type: in vivo, mouse; conditions: for weight-loss on chronic administration: 32 mg/kg, C57BL/6 WT mice, tolerance experiment; for health on repeated administration (need for euthanasia): preliminary experiments, without saline supplement
rats = test system: rats; design: method as in Mada et al., 2020; conditions: ref Mada et al., 2020; cited from earlier work

Compound | Ki (DOPr [1]) [nM] | DOPr ΔG (DOPr [1]) [kcal/mol] | Ki (KOPr [2]) [nM] | Selectivity KOPr/MOPr (Ki) (KOPr [2]) | MOPr ΔG (MOPr [3]) [kcal/mol] | Ki (MOPr [3]) | EC50 (MOPr [4]) [nM] | Emax (MOPr [4]) [%] | EC50 (DOPr [5]) [nM] | Selectivity DOPr/MOPr (EC50) (DOPr [5]) | Emax (DOPr [5]) [%] | other results
CN1CC[C@]23c4c5ccc(O)c4O[C@H]2C(=O)/C(=C/c2ccc([N+](=O)[O-])cc2)C[C@@]3(O)[C@H]1C5 [Compound 12, Nitro-benzylideneoxymorphone] | 10 ± 3 | -10.98 ± 0.16 | 180 ± 60 | 197 | -12.42 ± 0.17 | 0.9 ± 0.3 nM | 2.2 ± 0.5 | 87 ± 7 | 20 ± 5 | 9.1 | 28 ± 4 | MOPr potency relative to that reported for oxymorphone (MOPr [4]; higher potency than oxymorphone (Olson et al., 2019)): approximately 10 fold; Emax (KOPr [6]): < 15%; Kb (DOPr [7]): 32 nM; DOPr-mediated βarrestin2 recruitment, compound alone (DOPr [7]; agonist mode, any concentration): did not stimulate; area under the curve (AUC) of antinociceptive time-course (C57BL/6 mice [8]; 32 mg/kg 12 or 10 mg/kg morphine, tested every 30 min): 9247 s*min; tail withdrawal latency, dose-response (C57BL/6 mice [8]): dose-dependent increase in tail withdrawal latency; antinociceptive potency relative to morphine (C57BL/6 mice [8]; less potent than morphine, WWTW): approximately 3 fold; day of first statistically significant antinociceptive tolerance (C57BL/6 mice [9]): 2 days; antinociception after naloxone pretreatment (C57BL/6 mice [9]; 32 mg/kg 12, 10 mg/kg naloxone pretreatment, C57BL/6 WT): blocked antinociception; antinociception in MOPr KO mice (C57BL/6 mice [9]; 32 mg/kg i.p., C57BL/6 MOPr KO): did not show antinociception; weight-loss on chronic administration (C57BL/6 mice [10]): equal or greater weight-loss than those treated with morphine; health on repeated administration (need for euthanasia) (C57BL/6 mice [10]): became sick and had to be euthanized
CN1CC[C@]23c4c5ccc(O)c4O[C@H]2C(=O)/C(=C/c2ccc(Cl)cc2)C[C@@]3(O)[C@H]1C5 [Compound 8] | 47 ± 16 | -10.06 ± 0.17 | > 1000 | >42 | -10.46 ± 0.03 | 23.8 ± 1.2 nM | > 1000 |  | 145 ± 14 | <0.15 | 9 ± 3 | 
CN1CC[C@]23c4c5ccc(O)c4O[C@H]2C(=O)/C(=C/c2ccccc2)C[C@@]3(O)[C@H]1C5 [Compound 5, 7-E-benzylideneoxymorphone] |  |  |  |  |  |  | 63 ± 25 | 53 ± 9 | 26 ± 4 |  | 22 ± 4 | tail withdrawal latency, dose-response (C57BL/6 mice [8]): negligible antinociception; antinociception in the tolerance paradigm (C57BL/6 mice [9]; 32 mg/kg, C57BL/6 WT mice): neither weight-loss nor antinociception; weight-loss on chronic administration (C57BL/6 mice [10]): neither weight-loss nor antinociception; antinociception in the warm water tail withdrawal test (rats): < 20 % MPE
CN1CC[C@]23c4c5ccc(O)c4O[C@H]2C(=O)/C(=C/c2ccc(Br)cc2)C[C@@]3(O)[C@H]1C5 [Compound 9] | 121 ± 45 | -9.50 ± 0.19 | > 1000 | >25 | -10.16 ± 0.14 | 39.9 ± 10.5 nM | > 1000 |  |  |  | < 15 | 
CN1CC[C@]23c4c5ccc(O)c4O[C@H]2C(=O)/C(=C/c2ccc4ccccc4c2)C[C@@]3(O)[C@H]1C5 [Compound 14] | 36 ± 4 | -10.22 ± 0.06 | 390 ± 140 | 299 | -12.20 ± 0.29 | 1.3 ± 0.8 nM | 12 ± 5 | 78 ± 11 |  |  | < 15 | Emax (KOPr [6]): < 15%
COc1ccc(/C=C2\C[C@@]3(O)[C@H]4Cc5ccc(O)c6c5[C@@]3(CCN4C)[C@@H](O6)C2=O)cc1 [Compound 10] | 37 ± 9 | -10.20 ± 0.13 | > 1000 | >90 | -10.92 ± 0.12 | 11 ± 2.4 nM | 172 ± 55 | 80 ± 5 | 102 ± 8 | 0.59 | 30 ± 9 | 
CN1CC[C@]23c4c5ccc(O)c4O[C@H]2C(=O)/C(=C/c2cccc4ccccc24)C[C@@]3(O)[C@H]1C5 [Compound 13] | 56 ± 20 | -9.95 ± 0.18 | > 1000 | >13 | -9.78 ± 0.17 | 75 nM and 74.8 nM | > 1000 |  | 102 ± 37 |  | 36 ± 10 | 
CN1CC[C@]23c4c5ccc(O)c4O[C@H]2C(=O)/C(=C/c2ccc(O)cc2)C[C@@]3(O)[C@H]1C5 [Compound 11] | 37 ± 7 | -10.20 ± 0.10 | > 1000 | >44 | -10.49 ± 0.14 | 22.7 ± 6 nM | 275 ± 100 | 85 ± 6 | 97 ± 40 | 0.35 | 21 ± 6 | 
CN1CC[C@]23c4c5ccc(O)c4O[C@H]2[C@@H](O)C=C[C@H]3[C@H]1C5 [morphine, reference compound] |  |  |  |  |  |  |  |  |  |  |  | day of first statistically significant antinociceptive tolerance (C57BL/6 mice [9]): 3 days; health on repeated administration (need for euthanasia) (C57BL/6 mice [10]): did not require euthanasia
CN1CC[C@]23c4c5ccc(O)c4O[C@H]2C(=O)/C(=C/c2ccc(F)cc2)C[C@@]3(O)[C@H]1C5 [Compound 7] | 55 ± 8 | -9.97 ± 0.08 | > 1000 | >50 | -10.57 ± 0.28 | 19.9 ± 11.7 nM | 95 ± 25 | 69 ± 16 |  |  | < 15 | 
